In general, melting point refers to the temperature, or range, at which the solid turns liquid. Broadly, the Ki is a dissociation constant, usually derived from enzyme kinetics or from competition with a known ligand. By EC50 is commonly meant the midpoint of the concentration-response curve.

Results on 8 molecules are retold here after patent US7253281B2, “Anti-obesity 1,2,3,4,10,10a-hexahydropyrazino[1,2-a]indoles” (Hoffmann-La Roche Inc., priority 2000, dated 2007).

A value given as a limit tells only on which side of the number the result lay.

The target of data set [1] is T1, 5-HT2C receptors in a CHO cell line (Homo sapiens, UniProt P28335).
T1 construct: expressed in transfected cells; host or cells: CHO cell line
T1 sequence (P28335 33-458): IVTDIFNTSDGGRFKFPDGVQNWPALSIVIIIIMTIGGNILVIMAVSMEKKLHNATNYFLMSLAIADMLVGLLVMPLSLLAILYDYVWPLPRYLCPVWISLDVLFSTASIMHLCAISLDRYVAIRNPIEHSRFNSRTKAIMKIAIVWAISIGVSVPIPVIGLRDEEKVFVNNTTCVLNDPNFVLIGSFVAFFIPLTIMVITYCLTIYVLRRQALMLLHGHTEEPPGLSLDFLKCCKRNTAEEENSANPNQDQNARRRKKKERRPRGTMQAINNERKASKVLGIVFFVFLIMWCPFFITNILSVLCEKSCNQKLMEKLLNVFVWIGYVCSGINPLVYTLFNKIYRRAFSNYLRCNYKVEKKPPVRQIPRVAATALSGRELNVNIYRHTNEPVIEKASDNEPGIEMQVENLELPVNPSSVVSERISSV
Kind of data set: Binding to 5-HT2C receptor, [3H]-5-HT, Method (a). Conditions: read-out: Ki (2C). As to the method: (§1) The binding of compounds of formula (I) to serotonin receptors was determined in vitro by standard methods. The preparations were investigated in accordance with the assays given hereinafter.
Method (a): For the binding to the 5-HT2C receptor the 5-HT2C receptors were radiolabeled with [^3H]-5-HT. The affinity of the compounds for 5-HT2C receptors in a CHO cell line was determined according to the procedure of D. Hoyer, G. Engel and H. O. Kalkman, European J. Pharmacol., 1985, 118, 13–23.

The target in data set [2] is T2, human 5-HT2B receptors in a CHO cell line (Homo sapiens, UniProt P41595).
T2 construct: expressed in transfected cells; host or cells: CHO cell line
T2 sequence (P41595 whole entry): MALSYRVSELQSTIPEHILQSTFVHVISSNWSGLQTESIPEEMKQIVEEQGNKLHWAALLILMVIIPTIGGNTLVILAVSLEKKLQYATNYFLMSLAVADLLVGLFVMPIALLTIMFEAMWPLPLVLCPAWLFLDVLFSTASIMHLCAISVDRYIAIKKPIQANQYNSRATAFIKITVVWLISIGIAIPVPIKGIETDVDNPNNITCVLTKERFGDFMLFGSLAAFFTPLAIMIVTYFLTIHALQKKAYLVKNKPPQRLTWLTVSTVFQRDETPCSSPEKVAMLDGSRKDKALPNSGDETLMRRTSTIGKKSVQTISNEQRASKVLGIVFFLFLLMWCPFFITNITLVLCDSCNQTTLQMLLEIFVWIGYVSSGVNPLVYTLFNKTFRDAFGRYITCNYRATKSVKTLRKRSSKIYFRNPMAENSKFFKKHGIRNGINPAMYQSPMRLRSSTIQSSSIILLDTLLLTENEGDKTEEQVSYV
Nature of the data set: Binding to 5-HT2B receptor, [3H]-5-HT, Method (b). To be noted: read-out: Ki (2B). As to the method: as §1
Method (b): For the binding to the 5-HT2B receptor the 5-HT2B receptors were radiolabeled with [^3H]-5-HT. The affinity of the compounds for human 5-HT2B receptors in a CHO cell line was determined according to the procedure of K. Schmuck, C. Ullmer, P. Engels and H. Lubbert, FEBS Lett., 1994, 342, 85–90.

The target in data set [3] is T3, 5-HT2A receptors in a CHO cell line (Homo sapiens, UniProt P28223).
T3 construct: expressed in transfected cells; host or cells: CHO cell line
T3 sequence (P28223 whole entry): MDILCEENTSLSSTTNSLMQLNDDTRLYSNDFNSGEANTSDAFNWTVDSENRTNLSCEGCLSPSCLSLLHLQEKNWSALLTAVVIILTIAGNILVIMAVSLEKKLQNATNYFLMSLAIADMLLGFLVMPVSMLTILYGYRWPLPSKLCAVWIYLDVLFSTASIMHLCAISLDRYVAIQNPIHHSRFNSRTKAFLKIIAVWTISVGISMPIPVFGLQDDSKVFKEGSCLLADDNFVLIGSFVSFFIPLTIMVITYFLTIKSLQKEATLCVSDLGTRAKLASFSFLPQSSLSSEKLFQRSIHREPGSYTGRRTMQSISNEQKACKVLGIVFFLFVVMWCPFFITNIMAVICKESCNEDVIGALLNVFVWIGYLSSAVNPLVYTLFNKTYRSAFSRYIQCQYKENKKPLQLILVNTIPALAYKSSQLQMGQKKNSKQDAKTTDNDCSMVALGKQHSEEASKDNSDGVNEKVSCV
Nature of the data set: Binding to 5-HT2A receptor, [125I]-DOI, Method (c). Conditions: read-out: Ki (2A). On the procedure: as §1
Method (c): For the binding to the 5-HT2A receptor the 5-HT2A receptors were radiolabeled with [^125I]-DOI. The affinity of the compounds for 5-HT2A receptors in a CHO cell line was determined according to the procedure of D. J. McKenna and S. J. Peroutka, J. Neurosci., 1989, 9, 3482–90.

The target of data set [4] is T4, human 5-HT2C receptor (CHO cells) (Homo sapiens, UniProt P28335).
T4 construct: expressed in transfected cells; host or cells: CHO cells
T4 sequence (P28335 33-458): T1 sequence (P28335 33-458)
Nature of the data set: Functional activity, FLIPR calcium assay, h5-HT2C. It counts as cell-based. On the procedure: (§2) The functional activity of compounds of formula (I) was assayed using a Fluorimetric Imaging Plate reader (FLIPR). CHO cells expressing the human 5-HT2C or human 5-HT2A receptors were counted and plated into standard 96 well microtitre plates on the day before testing to give a confluent monolayer. The cells were then dye loaded with the calcium sensitive dye, Fluo-3-AM. Unincorporated dye was removed using an automated cell washer to leave a total volume of 100 μL/well of assay buffer (Hanks balanced salt solution containing 20 mM Hepes and 2.5 mM probenecid). The drug (dissolved in 50 μL of the assay buffer) was added at a rate of 70 μL/sec to each well of the FLIPR 96 well plate during fluorescence measurements. The measurements were taken at 1 sec intervals and the maximum fluorescent signal was measured (approx 10–15 secs after drug addition) and compared with the response produced by 10 μM 5-HT (defined as 100%) to which it was expressed as a percentage response (relative efficacy). Dose response curves were constructed using Graphpad Prism (Graph Software Inc.).

Data set [5] addresses T5, human 5-HT2A receptor (CHO cells) (Homo sapiens, UniProt P28223).
T5 construct: expressed in transfected cells; host or cells: CHO cells
Kind of data set: Functional activity, FLIPR calcium assay, h5-HT2A. It counts as cell-based. On the procedure:
as §2

The next data set has as its target h5-HT2B (Homo sapiens, UniProt P41595). Kind of data set: Functional activity, FLIPR calcium assay, h5-HT2B. It counts as cell-based.
Where [6] appears, read: relative to response of 10 μM 5-HT (100%).

T5 sequence (P28223 whole entry): as above
Sequence of h5-HT2B (P41595 whole entry): as the sequence (P41595 whole entry) above

In turn, `C[C@@H]1CNC[C@H]2Cc3ccc(C(F)(F)F)cc3N21.Cl` yielded a melting point of 221 to 224 °C.
Consider `C[C@@H]1CNC[C@@H]2Cc3ccc(C(F)(F)F)cc3N21.Cl`, for which the melting point was 245 to 250 °C (dec.).
Turning to `Cc1cc2c(cc1C(F)(F)F)N1[C@H](CNC[C@H]1C)C2.Cl`, the melting point is 200 to 205 °C.
For the molecule `CC(=O)Nc1ccc2c(c1)N1[C@@H](CNC[C@H]1C)C2.Cl`, the melting point was > 250 °C (dec.).
As for `C[C@@H]1CNC[C@H]2Cc3ccc(CO)cc3N21.Cl`, the melting point is 66 °C (dec.).
On to `CCCCNC(=O)c1ccc2c(c1)N1[C@@H](CNC[C@H]1C)C2.Cl`, for which the melting point was 125 °C (dec.).
With `O=C1OCCN1CN1CCN2c3cccc(Br)c3C[C@@H]2C1` [Example 3, (10aR)-3-(9-Bromo-3,4,10,10a-tetrahydro-1H-pyrazino[1,2-a]indol-2-ylmethyl)-oxazolidin-2-one], the Ki was 26 nM in data set [1], 110 nM in data set [2] and 230 nM in data set [3].
With `C[C@@H]1CNC[C@H]2Cc3ccc(Cl)cc3N21` [Example 8, (4R,10aR)-7-Chloro-4-methyl-1,2,3,4,10,10a-hexahydro-pyrazino[1,2-a]indole], the half-maximal effective concentration (EC50) came to 0.4 nM in data set [4] (FLIPR, CHO cells); 19 nM in data set [5] (FLIPR, CHO cells); 3.4 nM at h5-HT2B (FLIPR). For the same molecule, the “h5-HT2c Relative Efficacy (%)” value in data set [4] (setting [6]) turned out to be 97%. In data set [5] (setting [6]), the “h5-HT2A Relative Efficacy (%)” value is 60%. Besides, at h5-HT2B (setting [6]), the “h5-HT2B Relative Efficacy (%)” value came out at 62%.
